Reference: ChEMBL document CHEMBL4411307, “N,N'-diaryl-bishydrazones in a biphenyl platform: Broad spectrum antifungal agents” (Eur J Med Chem, 2019)
Converted amounts (≈) assume the structure as drawn. The source made the active and inactive calls. The rule behind the calls is not given here.

What was measured:
[1] = Selectivity index, ratio of CC50 for human A549 cells to MIC for Aspergillus nidulans ATCC 38163; format: toxicity; settings: read-out: Selectivity Index
[2] = Selectivity index, ratio of CC50 for human A549 cells to MIC for Aspergillus terreus ATCC MYA-3633; format: toxicity; settings: read-out: Selectivity Index
[3] = Hemolytic activity in mouse RBC at 7.8 ug/ml after 1 hr relative to control; format: ADME, cell-based, Erythrocyte; settings: red blood cells (erythrocytes), read-out: Activity
[4] = Selectivity index, ratio of CC50 for human A549 cells to MIC for fluconazole/ITC-resistant Candida albicans ATCC 10231; format: toxicity; settings: read-out: Selectivity Index
[5] = system: Aspergillus terreus; assay: Antifungal activity against Aspergillus terreus ATCC MYA-3633 measured after 48 hrs by CLSI M38-A2 protocol based method; format: functional; settings: ATCC MYA-3633, 48 h
[6] = system: Candida albicans; assay: Antifungal activity against fluconazole/ITC-susceptible Candida albicans ATCC MYA-2310 measured after 48 hrs by CLSI M27-A3 protocol based method; format: functional; settings: ATCC MYA-2310, 48 h
[7] = Selectivity index, ratio of compound concentration showing <20 to <25% hemolysis in mouse RBC to MIC for fluconazole/ITC-resistant Candida albicans ATCC 90819; format: toxicity; settings: red blood cells (erythrocytes), read-out: Selectivity Index
[8] = Selectivity index, ratio of CC50 for human A549 cells to MIC for fluconazole/ITC-resistant Candida albicans ATCC 64124; format: toxicity; settings: read-out: Selectivity Index
[9] = system: Pichia kudriavzevii; assay: Antifungal activity against Candida krusei ATCC 6258 measured after 48 hrs by CLSI M27-A3 protocol based method; format: functional; settings: ATCC 6258, 48 h
[10] = system: Listeria monocytogenes; assay: Antibacterial activity against Listeria monocytogenes; format: functional, organism-based
[11] = Hemolytic activity in mouse RBC at 1.95 ug/ml after 1 hr relative to control; format: ADME, cell-based, Erythrocyte; settings: red blood cells (erythrocytes), read-out: Activity
[12] = Selectivity index, ratio of compound concentration showing <20 to <25% hemolysis in mouse RBC to MIC for fluconazole/ITC-susceptible Candida albicans ATCC MYA-2876; format: toxicity; settings: red blood cells (erythrocytes), read-out: Selectivity Index
[13] = Selectivity index, ratio of CC50 for human A549 cells to MIC for Candida glabrata ATCC 2001; format: toxicity; settings: read-out: Selectivity Index
[14] = Selectivity index, ratio of compound concentration showing <20 to <25% hemolysis in mouse RBC to MIC for fluconazole/ITC-resistant Candida albicans ATCC MYA-1003; format: toxicity; settings: red blood cells (erythrocytes), read-out: Selectivity Index
[15] = system: Candida albicans; assay: Antifungal activity against fluconazole/ITC-resistant Candida albicans ATCC 64124 measured after 48 hrs by CLSI M27-A3 protocol based method; format: functional; settings: ATCC 64124, 48 h
[16] = Selectivity index, ratio of compound concentration showing <20 to <25% hemolysis in mouse RBC to MIC for Aspergillus flavus ATCC MYA-3631; format: toxicity; settings: red blood cells (erythrocytes), read-out: Selectivity Index
[17] = system: Staphylococcus aureus; assay: Antibacterial activity against methicillin-resistant Staphylococcus aureus; format: functional, organism-based
[18] = Selectivity index, ratio of compound concentration showing <20 to <25% hemolysis in mouse RBC to MIC for fluconazole/ITC-resistant Candida albicans ATCC 64124; format: toxicity; settings: red blood cells (erythrocytes), read-out: Selectivity Index
[19] = system: Candida albicans; assay: Antifungal activity against fluconazole/ITC-resistant Candida albicans ATCC 10231 measured after 48 hrs by CLSI M27-A3 protocol based method; format: functional; settings: ATCC 10231, 48 h
[20] = system: Nakaseomyces glabratus; assay: Antifungal activity against Candida glabrata ATCC 2001 measured after 48 hrs by CLSI M27-A3 protocol based method; format: functional; settings: CBS 138, 48 h
[21] = Selectivity index, ratio of CC50 for human A549 cells to MIC for fluconazole/ITC-resistant Candida albicans ATCC MYA-1237; format: toxicity; settings: read-out: Selectivity Index
[22] = Selectivity index, ratio of CC50 for human A549 cells to MIC for Aspergillus flavus ATCC MYA-3631; format: toxicity; settings: read-out: Selectivity Index
[23] = Hemolytic activity in mouse RBC at 31.3 ug/ml after 1 hr relative to control; format: ADME, cell-based, Erythrocyte; settings: red blood cells (erythrocytes), read-out: Activity
[24] = Selectivity index, ratio of compound concentration showing <20 to <25% hemolysis in mouse RBC to MIC for Aspergillus terreus ATCC MYA-3633; format: toxicity; settings: red blood cells (erythrocytes), read-out: Selectivity Index
[25] = system: Candida albicans; assay: Antifungal activity against fluconazole/ITC-resistant Candida albicans ATCC MYA-1237 measured after 48 hrs by CLSI M27-A3 protocol based method; format: functional; settings: ATCC MYA-1237, 48 h
[26] = Selectivity index, ratio of compound concentration showing <20 to <25% hemolysis in mouse RBC to MIC for Candida krusei ATCC 6258; format: toxicity; settings: red blood cells (erythrocytes), read-out: Selectivity Index
[27] = Hemolytic activity in mouse RBC at 62.5 ug/ml after 1 hr relative to control; format: ADME, cell-based, Erythrocyte; settings: red blood cells (erythrocytes), read-out: Activity
[28] = system: Candida parapsilosis; assay: Antifungal activity against Candida parapsilosis ATCC 22019 measured after 48 hrs by CLSI M27-A3 protocol based method; format: functional; settings: Lodderomyces parapsilosis, ATCC 22019, 48 h
[29] = Selectivity index, ratio of compound concentration showing <20 to <25% hemolysis in mouse RBC to MIC for fluconazole/ITC-resistant Candida albicans ATCC MYA-1237; format: toxicity; settings: red blood cells (erythrocytes), read-out: Selectivity Index
[30] = Selectivity index, ratio of CC50 for human A549 cells to MIC for fluconazole/ITC-susceptible Candida albicans ATCC MYA-2876; format: toxicity; settings: read-out: Selectivity Index
[31] = system: Candida albicans; assay: Antifungal activity against fluconazole/ITC-resistant Candida albicans ATCC 90819 measured after 48 hrs by CLSI M27-A3 protocol based method; format: functional; settings: ATCC 90819, 48 h
[32] = Hemolytic activity in mouse RBC at […] after 1 hr relative to control; format: ADME, cell-based, Erythrocyte; settings: red blood cells (erythrocytes), read-out: Activity; also: tested at 0.48 µg/mL
[33] = system: Aspergillus nidulans; assay: Antifungal activity against Aspergillus nidulans ATCC 38163 measured after 48 hrs by CLSI M38-A2 protocol based method; format: functional; settings: ATCC 38163, 48 h
[34] = system: A549; assay: Cytotoxicity against human A549 cells after 24 hrs by resazurin based assay; format: cell-based; settings: a549, 24 h
[35] = Selectivity index, ratio of compound concentration showing <20 to <25% hemolysis in mouse RBC to MIC for Aspergillus nidulans ATCC 38163; format: toxicity; settings: red blood cells (erythrocytes), read-out: Selectivity Index
[36] = Selectivity index, ratio of CC50 for human A549 cells to MIC for fluconazole/ITC-resistant Candida albicans ATCC 90819; format: toxicity; settings: read-out: Selectivity Index
[37] = Selectivity index, ratio of compound concentration showing <20 to <25% hemolysis in mouse RBC to MIC for fluconazole/ITC-susceptible Candida albicans ATCC MYA-2310; format: toxicity; settings: red blood cells (erythrocytes), read-out: Selectivity Index
[38] = Hemolytic activity in mouse RBC at 3.9 ug/ml after 1 hr relative to control; format: ADME, cell-based, Erythrocyte; settings: red blood cells (erythrocytes), read-out: Activity
[39] = system: Enterococcus; assay: Antibacterial activity against vancomycin-resistant Enterococcus; format: functional, organism-based
[40] = Selectivity index, ratio of CC50 for human A549 cells to MIC for fluconazole/ITC-resistant Candida albicans ATCC MYA-1003; format: toxicity; settings: read-out: Selectivity Index
[41] = Selectivity index, ratio of CC50 for human A549 cells to MIC for fluconazole/ITC-susceptible Candida albicans ATCC MYA-2310; format: toxicity; settings: read-out: Selectivity Index
[42] = system: Aspergillus flavus; assay: Antifungal activity against Aspergillus flavus ATCC MYA-3631 measured after 48 hrs by CLSI M38-A2 protocol based method; format: functional; settings: ATCC MYA-3631, 48 h
[43] = Selectivity index, ratio of CC50 for human A549 cells to MIC for Candida parapsilosis ATCC 22019; format: toxicity; settings: read-out: Selectivity Index
[44] = Selectivity index, ratio of compound concentration showing <20 to <25% hemolysis in mouse RBC to MIC for Candida glabrata ATCC 2001; format: toxicity; settings: red blood cells (erythrocytes), read-out: Selectivity Index
[45] = system: Candida albicans; assay: Antifungal activity against fluconazole/ITC-resistant Candida albicans ATCC MYA-1003 measured after 48 hrs by CLSI M27-A3 protocol based method; format: functional; settings: ATCC MYA-1003, 48 h
[46] = Selectivity index, ratio of compound concentration showing <20 to <25% hemolysis in mouse RBC to MIC for fluconazole/ITC-resistant Candida albicans ATCC 10231; format: toxicity; settings: red blood cells (erythrocytes), read-out: Selectivity Index
[47] = Hemolytic activity in mouse RBC at […] ug/ml after 1 hr relative to control; format: ADME, cell-based, Erythrocyte; settings: red blood cells (erythrocytes), read-out: Activity
[48] = Selectivity index, ratio of CC50 for human A549 cells to MIC for Candida krusei ATCC 6258; format: toxicity; settings: read-out: Selectivity Index
[49] = system: Candida albicans; assay: Antifungal activity against fluconazole/ITC-susceptible Candida albicans ATCC MYA-2876 measured after 48 hrs by CLSI M27-A3 protocol based method; format: functional; settings: ATCC MYA-2876, 48 h
[50] = Selectivity index, ratio of compound concentration showing <20 to <25% hemolysis in mouse RBC to MIC for Candida parapsilosis ATCC 22019; format: toxicity; settings: red blood cells (erythrocytes), read-out: Selectivity Index
[51] = system: BEAS-2B; assay: Cytotoxicity against human BEAS2B cells after 24 hrs by resazurin based assay; format: cell-based

## C(=N\Nc1ccccc1)/c1ccc(-c2cccc(/C=N/Nc3ccccc3)c2)cc1
[1]
  selectivity ratio: 16
[2]
  selectivity ratio: 2
[3]
  hemolysis at 1 h, 7.8 ug/ml: 8.5%
[4]
  selectivity ratio: 16
[5]
  MIC: 15.6 µg/mL (≈ 39.9 µM)
[6]
  MIC: 31.3 µg/mL (≈ 80.2 µM)
[7]
  selectivity ratio: 1 to 32
[8]
  selectivity ratio: 1
[9]
  MIC: 7.8 µg/mL (≈ 20 µM)
[10]
  Activity: inactive
[11]
  hemolysis at 1 h, 1.95 ug/ml: 3.5%
[12]
  selectivity ratio: 1 to 32
[13]
  selectivity ratio: 1
[14]
  selectivity ratio: 1 to 32
[15]
  MIC: 31.3 µg/mL (≈ 80.2 µM)
[16]
  selectivity ratio: 1 to 32
[17]
  Activity: inactive
[18]
  selectivity ratio: 1 to 32
[19]
  MIC: 1.95 µg/mL (≈ 4.99 µM)
[20]
  MIC: > 31.3 µg/mL
[21]
  selectivity ratio: 1
[22]
  selectivity ratio: 8
[23]
  hemolysis at 1 h, 31.3 ug/ml: 16.7%
[24]
  selectivity ratio: 1 to 32
[25]
  MIC: 31.3 µg/mL (≈ 80.2 µM)
[26]
  selectivity ratio: 1 to 32
[27]
  hemolysis at 1 h, 62.5 ug/ml: 23.6%
[28]
  MIC: > 31.3 µg/mL
[29]
  selectivity ratio: 1 to 32
[30]
  selectivity ratio: 1
[31]
  MIC: 31.3 µg/mL (≈ 80.2 µM)
[32]
  hemolysis at 1 h, […]: 0%
[33]
  MIC: 1.95 µg/mL (≈ 4.99 µM)
[34]
  CC50: > 31 µg/mL
[35]
  selectivity ratio: 1 to 32
[36]
  selectivity ratio: 1
[37]
  selectivity ratio: 1 to 32
[38]
  hemolysis at 1 h, 3.9 ug/ml: 1.5%
[39]
  Activity: inactive
[40]
  selectivity ratio: 4
[41]
  selectivity ratio: 1
[42]
  MIC: 3.9 µg/mL (≈ 9.99 µM)
[43]
  selectivity ratio: 1
[44]
  selectivity ratio: 1 to 32
[45]
  MIC: 3.9 µg/mL (≈ 9.99 µM)
[46]
  selectivity ratio: 1 to 32
[47]; at 15.6 µg/mL
  hemolysis at 1 h, 15.6 ug/ml: 14.1%
[47]
  hemolysis at 1 h, 0.975 ug/ml: 0%
[48]
  selectivity ratio: 4
[49]
  MIC: 31.3 µg/mL (≈ 80.2 µM)
[50]
  selectivity ratio: 1 to 32
[51]
  CC50: > 31 µg/mL
